In patent publication US20260207654A1, “HEPARAN SULFATE AND ITS MIMETICS AS CHEMOKINE INHIBITORS” (INDIAN INSTITUTE OF SCIENCE EDUCATION AND RESEARCH, priority 2021, published 2026):

Experiments:
Test in all cases: Chemokine glycan microarray binding assay
Conditions in all cases: maximum RFU set as 100% binding, average across 2 glycan concentrations and 3 chemokine dilutions (n=6)
CCL13 = CCL13 (Homo sapiens, UniProt Q99616)
Method: (§1) Microarray Studies: The compounds of the present invention were covalently immobilized on epoxy group collated glass slides. Slides were rehydrated with dH2O and incubated for 30 min in a staining dish with 50° C. prewarmed ethanolamine (0.05 M) in Tris-HCl (0.1 M, pH 9.0) to block the remaining reactive epoxy groups on the slide surface, then washed with 50° C. prewarmed dH2O. Slides were centrifuged at 200 g for 3 min, then fitted with the ProPlate Multi-Array 16-well slide module (Grace Bio-lab P37001) to divide into the subarrays (blocks). Slides were washed with PBST (0.1% Tween 20), aspirated, and blocked with 200 μL/subarray of blocking buffer (PBS pH 7.3+1% w/v ovalbumin) for 1 h at RT with gentle shaking. Next, the blocking solution was aspirated and 100 μL/block of primary chemokines diluted in PBS pH 7.3+1% w/v ovalbumin were incubated with gentle shaking for 2 hours at RT. Slides were washed 4 times with PBST, then with PBS (without Tween-20) for 2 min. Bound antibodies were detected by incubating with biotinylated secondary detections (1 ng/μL) diluted in PBS, 200 μL/block at RT for 1 h. Slides were washed 4 times with PBST, then with PBS (without Tween-20) for 2 min and biotinylated antibodies were detected with Cy3-SA ([…]). Slides were washed 4 times with PBST, then with PBS for 10 min followed by removal from the ProPlate Multi-Array slide module and immediately dipping in a staining dish with dH2O for 10 min with shaking. The slides were then centrifuged at 200 g for 3 min, and the dry slides immediately scanned. Binding was tested at three serial dilutions, then detected with the relevant biotinylated secondary antibody (1 μg/mL) followed by Cy3-strepavidin (1.5 μg/mL). Arrays were scanned and RFUs were calculated of chemokines binding to 100 μM glycans printed at four replicates. Rank binding of chemokines (each at three dilutions) to glycans printed at four replicates each was calculated and summarized in Table 1. For each binding assay per printed block, the maximum RFU was determined and set as 100% binding. Then, binding to all other glycans in the same block was ranked in comparison to the maximal binding, and average rank binding (and SEM) for each glycan across the three examined concentrations of each chemokine was calculated. This analysis allowed to compare the glycan-binding profiles of the different chemokines and dissect their binding preferences.
(§2) Table 1. Chemokine glycan microarray binding assay. Binding was tested at 3 serial dilutions, then detected with the relevant biotinylated secondary antibody (1 μg/ml) followed by Cy3-Strepavidin (1.5 μg/ml) (Table SX). Arrays were scanned, relative fluorescent units (RFU) obtained, and maximum RFU determined and set as 100% binding. Then rank binding (per printed glycan per concentration, per each chemokine dilution, per printed block) was determined. Since each glycans was printed at 2 concentration, 100% binding was set separately for each concentration. Then, binding to all the other glycans at the same concentration was ranked in comparison to the maximal binding, and the average rank binding and SEM for each glycan across the two glycan concentrations and three examined dilutions of each chemokine was calculated (n=6, 2 glycan concentrations across 3 chemokine dilutions). This analysis allowed to compare the glycan binding profiles of the different chemokines and dissect their binding preferences. The mean rank is shown as a heatmap of all the examined binding assays together (red highest, blue lowest and white 50th percentile of ranking).

CCL2 = CCL2 (Homo sapiens, UniProt P13500)
Sequence of CCL2 (P13500 24-99, species assumed): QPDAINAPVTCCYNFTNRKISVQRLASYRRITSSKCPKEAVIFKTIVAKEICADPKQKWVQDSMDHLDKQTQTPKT
Method: as §1, §2

CCL21 = target: T1, CCL21 (Homo sapiens, UniProt O00585)
T1 sequence (O00585 24-134): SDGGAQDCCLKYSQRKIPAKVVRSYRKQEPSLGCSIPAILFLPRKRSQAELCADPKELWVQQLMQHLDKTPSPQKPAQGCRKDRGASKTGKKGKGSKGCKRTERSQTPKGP
Method: as §1, §2

CCL28 = target: T2, CCL28 (Homo sapiens, UniProt Q9NRJ3)
T2 sequence (Q9NRJ3 20-127): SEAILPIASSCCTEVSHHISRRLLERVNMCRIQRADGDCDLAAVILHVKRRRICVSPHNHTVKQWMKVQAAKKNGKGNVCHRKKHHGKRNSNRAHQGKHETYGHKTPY
Method: as §1, §2

CCL5 = target: T3, CCL5 (Homo sapiens, UniProt P13501)
T3 sequence (P13501 24-91): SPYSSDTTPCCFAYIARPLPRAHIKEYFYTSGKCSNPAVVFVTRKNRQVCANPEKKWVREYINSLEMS
Method: as §1, §2

CCL7 = CCL7 (Homo sapiens, UniProt P80098)
Sequence of CCL7 (P80098 24-99, species assumed): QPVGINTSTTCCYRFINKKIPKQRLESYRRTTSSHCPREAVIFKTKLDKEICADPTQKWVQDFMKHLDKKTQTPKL
Method: as §1, §2

CXCL10 = target: T4, CXCL10 (Homo sapiens, UniProt P02778)
T4 sequence (P02778 22-98): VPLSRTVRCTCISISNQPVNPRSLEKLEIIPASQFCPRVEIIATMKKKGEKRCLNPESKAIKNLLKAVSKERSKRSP
Method: as §1, §2

CXCL12 = CXCL12 (Homo sapiens, UniProt P48061)
Sequence of CXCL12 (P48061 22-93, species assumed): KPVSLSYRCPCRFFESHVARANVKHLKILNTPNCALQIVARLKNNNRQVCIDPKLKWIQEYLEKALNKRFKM
Method: as §1, §2

CXCL8 = target: T5, CXCL8 (Homo sapiens, UniProt P10145)
T5 sequence (P10145 21-99): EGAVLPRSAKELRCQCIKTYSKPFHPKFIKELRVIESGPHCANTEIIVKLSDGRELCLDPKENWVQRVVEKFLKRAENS
Method: as §1, §2

Sequence of CCL13 (Q99616 17-98, species assumed): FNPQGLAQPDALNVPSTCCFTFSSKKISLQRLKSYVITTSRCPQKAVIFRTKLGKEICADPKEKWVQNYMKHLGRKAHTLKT

| mean rank binding to CCL13 (CCL13) [%] | mean rank binding to CCL2 (CCL2) [%] | mean rank binding to CCL21 (CCL21) [%] | mean rank binding to CCL28 (CCL28) [%] | mean rank binding to CCL5 (CCL5) [%] | mean rank binding to CCL7 (CCL7) [%] | mean rank binding to CXCL10 (CXCL10) [%] | mean rank binding to CXCL12 (CXCL12) [%] | mean rank binding to CXCL8 (CXCL8) [%] | Compound |
| --- | --- | --- | --- | --- | --- | --- | --- | --- | --- |
| 70 | 13 | 69 | 43 | 31 | 56 | 52 | 69 | 37 | 3-Aminopropyl-O-[(2-amino-2-deoxy-α-D-glucopyranosyl)-(1→4)-O-(2-O-sulfonato-α-L-idopyranosyluronate)-(1→4)-O-(2-amino-2-deoxy-α-D-glucopyranosyl)]-(1→4)-O-2-O-sulfonato-α-L-idopyranosiduronate [Example 13] |
| 74 | 4 | 52 | 46 | 2 | 30 | 47 | 62 | 17 | NCCOCCO[C@@H]1OC(C(=O)O)[C@@H](O)C(O)C1O (stereo partly drawn) [Example 1, Ethaoxy-2-aminoethoxyl-O-α-L-idopyranoside Uronic Acid] |
| 69 | 0 | 46 | 72 | 1 | 17 | 24 | 38 | 5 | NCCOCCO[C@@H]1O[C@@H](C(=O)O)[C@@H](OS(=O)(=O)O)[C@H](O)[C@H]1OS(=O)(=O)O [Example 3, Ethoxy-2-aminoethoxyl-O-(2,4-O-disulfonato)-α-L-idopyranoside Uronic Acid] |
| 67 | 2 | 48 | 56 | 2 | 33 | 44 | 56 | 12 | NCCOCCO[C@@H]1OC(C(=O)O)[C@@H](O[C@@H]2OC(C(=O)O)[C@@H](O)C(O)C2O)C(O)C1O (stereo partly drawn) [Example 4, Ethoxy-2-aminoethoxyl-O-(α-L-idopyranosyl Uronic Acid-α(1→4))-α-L-idopyranosyl Uronic Acid] |
| 81 | 23 | 62 | 80 | 15 | 58 | 57 | 64 | 62 | NCCOCCO[C@@H]1O[C@@H](C(=O)O)[C@@H](O[C@@H]2O[C@@H](C(=O)O)[C@@H](OS(=O)(=O)O)[C@H](O)[C@H]2O)[C@H](O)[C@H]1O [Example 5, Ethoxy-2-aminoethoxyl-O-((4-O-sulfonato)-α-L-idopyranosyl Uronic Acid-α(1→4))-α-L-idopyranoside Uronic Acid] |
| 94 | 25 | 71 | 84 | 38 | 55 | 67 | 79 | 73 | NCCOCCO[C@@H]1O[C@@H](C(=O)O)[C@@H](O[C@@H]2O[C@@H](C(=O)O)[C@@H](OS(=O)(=O)O)[C@H](O)[C@H]2OS(=O)(=O)O)[C@H](O)[C@H]1OS(=O)(=O)O [Example 6, Ethoxy-2-aminoethoxyl-O-((2,4-O-disulfonato)-α-L-idopyranosyl Uronic Acid-α(1→4)(2-sulfonato))-α-L-idopyroside Uronic Acid] |
| 86 | 36 | 83 | 80 | 30 | 75 | 78 | 92 | 63 | NCCOCCO[C@@H]1OC(C(=O)O)[C@@H](O[C@@H]2OC(C(=O)O)[C@@H](O[C@@H]3OC(C(=O)O)[C@@H](O)C(O)C3O)C(O)C2O)C(O)C1O (stereo partly drawn) [Example 7, Ethoxy-2-aminoethoxyl-O-(α-L-idopyranosyl Uronic Acid-α(1→4)-α-L-idopyranosyl Uronic Acid-α(1→4))-α-L-idopyranoside Uronic Acid] |
| 72 | 0 | 60 | 54 | 10 | 12 | 23 | 45 | 13 | NCCOCCO[C@@H]1O[C@@H](C(=O)O)[C@@H](O[C@@H]2O[C@@H](C(=O)O)[C@@H](O[C@@H]3O[C@@H](C(=O)O)[C@@H](OS(=O)(=O)O)[C@H](O)[C@H]3O)[C@H](O)[C@H]2O)[C@H](O)[C@H]1O [Example 8, Ethoxy-2-aminoethoxyl-O-((4-O-sulfonato)-α-L-idopyranosyl Uronic Acid-α(1→4)-L-idopyranosyl Uronic Acid-α(1→4))-α-L-idopyranoside Uronic Acid] |
| 53 | 66 | 79 | 51 | 75 | 94 | 82 | 75 | 71 | NCCOCCO[C@@H]1O[C@@H](C(=O)O)[C@@H](O[C@@H]2O[C@@H](C(=O)O)[C@@H](O[C@@H]3O[C@@H](C(=O)O)[C@@H](OS(=O)(=O)O)[C@H](O)[C@H]3OS(=O)(=O)O)[C@H](O)[C@H]2OS(=O)(=O)O)[C@H](O)[C@H]1OS(=O)(=O)O [Example 9, Ethoxy-2-aminoethoxyl-O-(2,4-O-disulfonato)-α-L-idopyranosyl Uronic Acid-α(1→4)(2-O-sulfonato)-α-L-idopyranosyl uronic acid-α(1→4)(2-O-sulfonato)-α-L-idopyranoside Uronic Acid] |

| Compound | mean rank binding to CCL13 (CCL13) [%] | mean rank binding to CCL2 (CCL2) [%] | mean rank binding to CCL21 (CCL21) [%] | mean rank binding to CCL28 (CCL28) [%] | mean rank binding to CCL5 (CCL5) [%] | mean rank binding to CCL7 (CCL7) [%] | mean rank binding to CXCL10 (CXCL10) [%] | mean rank binding to CXCL12 (CXCL12) [%] | mean rank binding to CXCL8 (CXCL8) [%] |
| --- | --- | --- | --- | --- | --- | --- | --- | --- | --- |
| NCCOCCO[C@@H]1O[C@@H](C(=O)O)[C@@H](OS(=O)(=O)O)[C@H](O)[C@H]1O [Example 2, Ethoxy-2-aminoethoxyl-O-(4-O-sulfonato)-α-L-idopyranoside Uronic Acid] | 82 | 2 | 63 | 58 | 2 | 30 | 45 | 66 | 12 |
